The test system of this experiment is IL-1β secretion in THP-1 cells (NLRP3). Put plainly: IL-1β secretion assay in PMA-differentiated THP-1 cells stimulated with LPS and nigericin (ELISA readout). The class given is cell-based. The conditions noted are these: IL-1β ELISA. As to the method:
Compounds as provided herein were tested in the following assay. Cell culture medium employed contained RPMI 1640 medium (89%), FBS (10%), Pen/Strep (1%), and 2-mercaptoethanol (0.05 mM). Freezing medium was made up of 90% FBS and 10% DMSO. THP-1 cells were removed from the liquid nitrogen and placed into a 37° C. water bath to thaw, until signs of ice dissipated. The cells were then added to 9 mL of warm cell culture medium and centrifuged for 5 minutes at 1000 rpm. The supernatant was discarded, and the cells were resuspended in new cell culture medium. THP-1 cells were then split and cultured in the cell culture medium, being passaged every 2-3 days with the cell density will be maintained between 5×10^5 and 1.5×10^6 viable cells/mL.
To freeze, cells were resuspended with fresh freezing medium, adjusting the cell density to 5×10^6 cells/mL. The cell suspension was partitioned into 1 mL aliquots per vial, and the vials were transferred to a −80° C. freezer. After one day at −80° C., the cell vials were transferred to liquid nitrogen freezer for storage.
PMA was dissolved in DMSO to make a stock solution at 5 mg/ml and stored in 10 μl aliquots at −20° C. for single use. PMA is added to normal growth medium. LPS was diluted with 1 mL of water solution to provide a 1 mg/mL stock solution and stored in 15 μl aliquots at −20° C. for single use. Nigericin is diluted in ice cold 100% ethanol to 5 mg/ml (6.7 mM) and stored in 75 μL aliquots at −20° C. for single use. Serum-free media contains RPMI 1640 medium (99%), Pen/Strep (1%), and 2-mercaptoethanol (0.05 mM). The two control conditions used to qualify and normalize test compound dose-response curves were as follows: High Control=25 ng/mL LPS, […], 0.5% DMSO, Low Control=25 ng/mL, LPS, 0.5% DMSO.
THP-1 cells were diluted to provide a suspension at a concentration of 1.0×10^6 cells/mL with the total volume of suspension required to enable the desired number of assay plates. The growth media was supplemented with PMA (5 ng/mL final concentration) and the cells were incubated at 37° C. under a humidified atmosphere of 5% CO2 for 40 h.
All media was carefully aspirated from each culture flask. The cells were washed carefully with 1×DPBS. The cells were then briefly digested with trypsin LE for 5 minutes at 23° C. and immediately resuspended in cell growth media. After resuspension, the cells were centrifuged at 1000 rpm for 3 minutes and the supernatant was discarded. The cells were resuspended in DPBS and once again centrifuged at 1000 rpm for 5 minutes. The supernatant was discarded and the cell pellet was resuspended in serum-free media supplemented with LPS (25 ng/mL final concentration) to enable the distribution of 30K THP-1 cells within 45 μL of media into each well of 384-well PDL-coated plates. The 384-well plates were then incubated at 37° C. under a humidified atmosphere of 5% CO2 for 2 h. Following this period, test compounds were dispensed by Tecan across the desired concentration range with all wells normalized to a final 0.5% DMSO concentration. The plates were then then incubated at 37° C. under a humidified atmosphere of 5% CO2 for 1 h. Following this period, 5 μL of the 5 mg/mL nigericin stock solution was added to each of the appropriate wells and plates were centrifuged at 1000 rpm for 30 seconds. The plates were the immediately reintroduced to the incubator at 37° C. under a humidified atmosphere of 5% CO2 for 2 h. After this time, 35 μL/well of supernatant was collected and transferred into v-bottom plate and centrifuged at 1000 rpm for 1 minute. These supernatant aliquots were analyzed using an IL-Iβ detection kit as described below. If needed, the test samples could be snap frozen and stored at −80° C. until analyzed.
To prepare each ELISA plate, capture antibody (mAb Mt175) was diluted with PBS to a final concentration of […] and then 20 µL of this solution was added to each well of the ELISA plate.
Each plate was allowed to incubate overnight at 4° C. […]
A general note: ELISA stands for enzyme-linked immunosorbent assay.

Setting [1] is: Homo sapiens, THP-1, Table 3, LPS 25 ng/mL + nigericin, read-out: Activity (IC50 class).
The mark [2] stands for this setting: Homo sapiens, THP-1, Table 4, LPS 25 ng/mL + nigericin, read-out: Activity (IC50).
Setting [3] is: Table 3, LPS 25 ng/mL + nigericin, read-out: Activity (IC50 class).
Where [4] appears, read: Table 4, LPS 25 ng/mL + nigericin, read-out: Activity (IC50).

Where two headings read alike, the source gives them in different places.

The IC50 is the concentration that gives 50% inhibition. Take `O=C(Cn1nc(OC2CC3(C2)CC(F)(F)C3)c2cc(C3(F)CC3)ccc2c1=O)Nc1ncc(F)cn1` [Example 15, 2-[4-(2,2-difluorospiro[3.3]heptan-6-yl)oxy-6-(1-fluorocyclopropyl)-1-oxophthalazin-2-yl]-N-(5-fluoropyrimidin-2-yl)acetamide]: the IC50 under setting [1] was below 1000 nM and the IC50 under setting [2] was 19 nM.

With `O=C(Cn1nc(OCC2CC2)c2cc(Br)ccc2c1=O)Nc1ncc(F)cn1` [Example 50, 2-[6-bromo-4-(cyclopropylmethoxy)-1-oxophthalazin-2-yl]-N-(5-fluoropyrimidin-2-yl)acetamide], the IC50 reads like this: under setting [1], below 1000 nM; under setting [2], 343 nM.

In the case of `C[C@]1(O)C[C@@H](NC(=O)Cn2nc(OC3CC4(C3)CC4(F)F)c3cc(Br)ccc3c2=O)C1` (single isomer, unassigned) [Example 20, 2-[6-bromo-4-(2,2-difluorospiro[2.3]hexan-5-yl)oxy-1-oxophthalazin-2-yl]-N-(cis-3-hydroxy-3-methylcyclobutyl)acetamide], the IC50 by setting is: under setting [3], 1000 to 10000 nM; under setting [4], 3400 nM.

For the compound `O=C(Cn1nc(OC2CC3(C2)CC3(F)F)c2cc(Br)ccc2c1=O)Nc1ncc(F)cn1` (single isomer, unassigned) [Example 6, 2-[6-bromo-4-(2,2-difluorospiro[2.3]hexan-5-yl)oxy-1-oxophthalazin-2-yl]-N-(5-fluoropyrimidin-2-yl)acetamide], the IC50 reads like this: under setting [3], below 1000 nM; under setting [4], 308 nM.

For the compound `COc1nn(CC(=O)Nc2ncc(F)cn2)c(=O)c2ccc(C3CC3)c(F)c12` [Example 32, 2-(6-cyclopropyl-5-fluoro-4-methoxy-1-oxophthalazin-2-yl)-N-(5-fluoropyrimidin-2-yl)acetamide], the IC50 was below 1000 nM under setting [1] and 183 nM under setting [2].

Consider `O=C(Cn1nc(OC2CC2)c2cc(C3(F)CC3)ccc2c1=O)Nc1ncc(F)cn1` [Example 12, 2-[4-cyclopropyloxy-6-(1-fluorocyclopropyl)-1-oxophthalazin-2-yl]-N-(5-fluoropyrimidin-2-yl)acetamide], for which the IC50 under setting [1] was below 1000 nM and the IC50 under setting [2] worked out at 152 nM.

As to `O=C(Cn1nc(OC2CC2)c2cc(Br)ccc2c1=O)Nc1nc2ccccn2n1` [Example 27, 2-(6-bromo-4-cyclopropyloxy-1-oxophthalazin-2-yl)-N-([1,2,4]triazolo[1,5-a]pyridin-2-yl)acetamide], the IC50 by setting is: under setting [1], below 1000 nM; under setting [2], 235 nM.

As for `Cc1cnc(NC(=O)Cn2nc(OC3CC4(C3)CC4(F)F)c3cc(Br)ccc3c2=O)nc1` (single isomer, unassigned) [Example 22, 2-[6-bromo-4-(2,2-difluorospiro[2.3]hexan-5-yl)oxy-1-oxophthalazin-2-yl]-N-(5-methylpyrimidin-2-yl)acetamide], the IC50 reads like this: under setting [3], below 1000 nM; under setting [4], 815 nM.

Regarding `C[C@@H]1CC1Oc1nn(CC(=O)Nc2ncc(F)cn2)c(=O)c2ccc(Br)cc12` (stereo in doubt) [Example 52, 2-[6-bromo-4-[cis-2-methylcyclopropyl]oxy-1-oxophthalazin-2-yl]-N-(5-fluoropyrimidin-2-yl)acetamide], the IC50 under setting [1] was below 1000 nM and the IC50 under setting [2] was found to be 924 nM.

Take `O=C(Cn1nc(OC2CC(C(F)(F)F)C2)c2cc(Br)ccc2c1=O)Nc1ncc(F)cn1` (stereo not shown) [Example 42, 2-[6-bromo-1-oxo-4-[3-(trifluoromethyl)cyclobutyl]oxyphthalazin-2-yl]-N-(5-fluoropyrimidin-2-yl)acetamide]: the IC50 is below 1000 nM under setting [1] and 360 nM under setting [2].

Take `COc1nn(CC(=O)Nc2ncc(F)cn2)c(=O)c2ccc(C3CC3)c(OC)c12` [Example 33, 2-(6-cyclopropyl-4,5-dimethoxy-1-oxophthalazin-2-yl)-N-(5-fluoropyrimidin-2-yl)acetamide]: the IC50 reads like this: under setting [1], below 1000 nM; under setting [2], 625 nM.

With `C[C@]1(O)C[C@@H](NC(=O)Cn2nc(OC3CC4(C3)CC(F)(F)C4)c3cc(Br)ccc3c2=O)C1` [Example 16, 2-[6-bromo-4-(2,2-difluorospiro[3.3]heptan-6-yl)oxy-1-oxophthalazin-2-yl]-N-(cis-3-hydroxy-3-methylcyclobutyl)acetamide], the IC50 reads like this: under setting [1], below 1000 nM; under setting [2], 137 nM.

Turning to `COc1nn(CC(=O)N[C@H]2C[C@@](C)(O)C2)c(=O)c2ccc(Br)cc12` [Example 24, 2-(6-bromo-4-methoxy-1-oxophthalazin-2-yl)-N-(cis-3-hydroxy-3-methylcyclobutyl)acetamide], the IC50 is below 1000 nM under setting [1] and 183 nM under setting [2].

In the case of `O=C(Cn1nc(OC2CC3(C2)CC3(F)F)c2cc(Br)ccc2c1=O)Nc1nc2ccccn2n1` (single isomer, unassigned) [Example 25, 2-[6-bromo-4-(2,2-difluorospiro[2.3]hexan-5-yl)oxy-1-oxophthalazin-2-yl]-N-([1,2,4]triazolo[1,5-a]pyridin-2-yl)acetamide], the IC50 was below 1000 nM under setting [1] and 33 nM under setting [4].

Consider `O=C(Cn1nc(OC2C[C@@H]2F)c2cc(Br)ccc2c1=O)Nc1ncc(F)cn1` (stereo partly drawn) [Example 53, 2-[6-bromo-4-[2-trans-fluorocyclopropyl]oxy-1-oxophthalazin-2-yl]-N-(5-fluoropyrimidin-2-yl)acetamide], for which the IC50 under setting [2] was determined as 389 nM.

As to `O=C(Cn1nc(OC2C[C@H]2F)c2cc(Br)ccc2c1=O)Nc1ncc(F)cn1` (stereo partly drawn) [Example 54, 2-[6-bromo-4-[2-cis-fluorocyclopropyl]oxy-1-oxophthalazin-2-yl]-N-(5-fluoropyrimidin-2-yl)acetamide], the IC50 under setting [2] worked out at 490 nM.

Regarding `O=C(Cn1nc(OC2CC(F)(F)C2)c2cc(Br)ccc2c1=O)Nc1ncc(F)cn1` [Example 49, 2-[6-bromo-4-(3,3-difluorocyclobutyl)oxy-1-oxophthalazin-2-yl]-N-(5-fluoropyrimidin-2-yl)acetamide], the IC50 is 1000 to 10000 nM under setting [1] and 1510 nM under setting [2].

Turning to `C[C@]1(O)C[C@@H](NC(=O)Cn2nc(OC3CC3)c3cc(Br)ccc3c2=O)C1` [Example 23, 2-(6-bromo-4-cyclopropyloxy-1-oxophthalazin-2-yl)-N-(cis-3-hydroxy-3-methylcyclobutyl)acetamide], the concentration for half-maximal inhibition (IC50) was below 1000 nM under setting [1] and 312 nM under setting [2].

As for `COc1nn(CC(=O)Nc2ncc(F)cn2)c(=O)c2ccc(C3(F)CC3)cc12` [Example 11, 2-[6-(1-fluorocyclopropyl)-4-methoxy-1-oxophthalazin-2-yl]-N-(5-fluoropyrimidin-2-yl)acetamide], the IC50 is below 1000 nM under setting [1] and 136 nM under setting [2].

For the compound `O=C(Cn1nc(OC2CC3(C2)CC3(F)F)c2cc(Br)ccc2c1=O)Nc1ncc(F)cn1` (single isomer, unassigned) [Example 5, 2-[6-bromo-4-(2,2-difluorospiro[2.3]hexan-5-yl)oxy-1-oxophthalazin-2-yl]-N-(5-fluoropyrimidin-2-yl)acetamide], the IC50 by setting is: under setting [1], below 1000 nM; under setting [4], 21 nM.

Take `O=C(Cn1nc(OC2CC2)c2cc(I)ccc2c1=O)Nc1ncc(F)cn1` [Example 28, 2-(4-cyclopropyloxy-6-iodo-1-oxophthalazin-2-yl)-N-(5-fluoropyrimidin-2-yl)acetamide]: the IC50 is, setting by setting: under setting [1], below 1000 nM; under setting [2], 21 nM.
